Patent US20220331408A1, “TREATMENT OF GLYCOGEN STORAGE DISEASE (GSD)” (GENETHON, priority 2019, published 2022)

How the values were obtained:
[1] = general statement, no test described; cited from earlier work
GAA [2] = target: GAA (Homo sapiens, UniProt P10253); assay: GAA activity in tissues (4-MU substrate cleavage) of GAA KO mice injected with AAV-hGAA plus chaperones; assay type: in vivo; conditions: for GAA activity (uptake) in tissues: tissues overall (FIG. 7)
Procedure: (§1) Three to four-month-old GAA deficient male mice were divided into six groups and one control group was composed by wild-type littermates. Each group was composed by eight mice in maximum two cages, to facilitate the administration of the drugs dissolved in drinking water. Starting from day 0, GAA deficient (KO) mice (mouse strain B6; 129-Gaa^tm1Rabn/J) were injected with AAV-hGAA at 1×10^11 vg/kg via tail vein injection in combination with the different pharmacological chaperones (PC) dissolved in the drinking water. In parallel, untreated GAA wild-type mice and two groups of GAA deficient mice injected with the AAV-hGAA vector or PBS were used as controls. PC molecules were orally administered to the mice, using a “3 days on/4 days off” regimen, consisting in three consecutive days of treatment followed by four consecutive days with drinking water only, as described in FIG. 4. Mice receive 100 mg/kg/die of duvoglustat (DNJ, AX61Q1, Interchim, San Diego, Calif.), 100 mg/kg/die of duvoglustat combined with 25 mg/kg/die of ambroxol hydrochloride (DNJ-ABX), 25 mg/kg/die of ambroxol hydrochloride (ABX, A9797, Sigma, Saint Louis, Mo.), 4200 mg/kg/die of N-acetyl-cysteine (NAC, A7250, Sigma, Saint Louis, Mo.) dissolved in drinking water (FIG. 4) or normal drinking water.
Circulating hGAA activity and levels were monitored over a period of two months. Mice were sacrificed and different organs and muscles were collected (heart, diaphragm, quadriceps, and triceps) to measure the uptake of GAA in tissues and the glycogen clearance.
At the end of the study (2 months post-injection), animals were sacrificed by CO2 inhalation. Heart, diaphragm, quadriceps, and triceps were collected and snap-frozen in liquid nitrogen for biochemical analysis. Frozen samples are stored at −80° C. until processing.
GAA activity was assessed in plasma and tissue by measurement of 4-methyl-umbelliferyl-α-d-glucoside (4-MU, Sigma, St Louis, Mo.) cleavage at pH 4.3. To this end, mouse tissues collected at sacrifice was homogenized in PBS. Insoluble proteins were removed by centrifugation. The protein content of the resultant lysates was quantified via the BCA Protein Assay (Thermo Fisher Scientific, Waltham, Mass.). Plasma and tissues samples were diluted in water and 10 μL of each sample were incubated with 20 μL of reconstituted substrate for 1 hr at 37° C. After stopping the reaction, the released fluorescence was measured with EN-SPIRE® fluorimeter (Perkin Elmer, Waltham, Mass.). GAA activity was normalized against total protein content or plasma volume.

human GAA (hGAA) [3] = target: T1, human GAA (hGAA) (Homo sapiens, UniProt P10253); assay: Mature lysosomal 70 KDa hGAA in tissues (uptake) by Western blot, wild-type mice injected with AAV-GAA plus chaperones; assay type: in vivo; design: expressed in transfected cells; conditions: for GAA uptake in tissues: tissues overall (FIG. 3)
Procedure: Six-eight-week-old C57Bl/6 male mice were divided into 9 groups of five mice. 5×10^11 vg/kg of AAV8-sp7-Δ8-co1GAA vectors were administered at day 0 intravenously in awake, restrained animals via tail vein injection. Two months after the AAV treatment, 7 pharmacological chaperone molecules or combination of them were orally administered to the mice using a “3 on/4 off” regimen (three consecutive days of treatment followed by four consecutive days with drinking water only) for four weeks. At the end of this four-week period, all mice were sacrificed and different organs and muscles were collected (liver, heart, brain, spinal cord, diaphragm, quadriceps, and triceps). C57Bl/6 mice were injected either with PBS (CTRL) or with 5×10^11 vg/kg of the AAV8 vector expressing secretable therapeutic hGAA polypeptide (AAV-GAA).
Two months after vector injection, mice were treated for four weeks with 100 mg/kg/die of duvoglustat (DNJ, AX61Q1, Interchim, San Diego, Calif.), 100 mg/kg/die of duvoglustat combined with 25 mg/kg/die of ambroxol (DNJ-ABX), 25 mg/kg/die of ambroxol hydrochloride (ABX, A9797, Sigma, Saint Louis, Mo.), 2 mg/kg/die of voglibose (VOGLIBOSE, S4101, Selleckchem, Houston, Tex.), 20 mg/kg/die of acarbose (ACARBOSE, S1271, Selleckchem, Houston, Tex.), 2 mg/kg/die of miglitol (MIGLITOL, S2589, Selleckchem, Houston, Tex.) or 4200 mg/kg/die of N-acetyl-cysteine (NAC, A7250, Sigma, Saint Louis, Mo.) dissolved in drinking water (FIG. 1). One group received normal drinking water (WATER).
Three months after vector injection, mice were sacrificed and the levels of human GAA (hGAA) in blood and tissues were analyzed by Western blot.
At the end of the study (3 months post-injection), animals were sacrificed by CO2 inhalation. Liver, heart, brain, spinal cord, diaphragm, quadriceps, and triceps were collected and snap-frozen in liquid nitrogen for biochemical analysis. Frozen samples were stored at −80° C. until processing.
Mouse tissues were collected at sacrifice and homogenized in PBS. Protein concentration was determined using the BCA Protein Assay (Thermo Fisher Scientific, Waltham, Mass.). Plasma and tissues samples were diluted 1:20 in water (except for brain, where samples were diluted 1:200). SDS-page electrophoresis was performed in a 4-12% gradient polyacrylamide gel. After transfer, the membrane was blocked with Odyssey buffer (Li-Cor Biosciences, Lincoln, Nebr.), incubated with an anti-human GAA antibody (rabbit monoclonal antibody, Abcam, Cambridge, UK) and an anti-GAPDH antibody (rabbit polyclonal antibodies, PA1-988, Life Technologies, Carlsbad, Calif.). The membrane was washed and incubated with the appropriate secondary antibody (Li-Cor Biosciences, Lincoln, Nebr.), and visualized by Odyssey imaging system (925-32213, Li-Cor Biosciences, Lincoln, Nebr.). To measure the uptake of GAA in tissues, the 70 KDa band (mature form), visualized by the anti-GAA antibody was quantified and normalized to the levels of expression of GAPDH used as loading control.

human GAA (hGAA) [4] = target: T1, human GAA (hGAA); assay: Circulating hGAA levels by Western blot in wild-type mice injected with AAV-GAA and given chaperones in drinking water; assay type: in vivo; conditions: wild-type C57Bl/6 mice, AAV-GAA 5×10^11 vg/kg, three months after vector injection, vs AAV-GAA mice on normal water (FIG. 2)
Procedure: Six-eight-week-old C57Bl/6 male mice were divided into 9 groups of five mice. 5×10^11 vg/kg of AAV8-sp7-Δ8-co1GAA vectors were administered at day 0 intravenously in awake, restrained animals via tail vein injection. Two months after the AAV treatment, 7 pharmacological chaperone molecules or combination of them were orally administered to the mice using a “3 on/4 off” regimen (three consecutive days of treatment followed by four consecutive days with drinking water only) for four weeks. At the end of this four-week period, all mice were sacrificed and different organs and muscles were collected (liver, heart, brain, spinal cord, diaphragm, quadriceps, and triceps). C57Bl/6 mice were injected either with PBS (CTRL) or with 5×10^11 vg/kg of the AAV8 vector expressing secretable therapeutic hGAA polypeptide (AAV-GAA). […]
Three months after vector injection, mice were sacrificed and the levels of human GAA (hGAA) in blood and tissues were analyzed by Western blot. […]
Mouse tissues were collected at sacrifice and homogenized in PBS. Protein concentration was determined using the BCA Protein Assay (Thermo Fisher Scientific, Waltham, Mass.). […] To measure the uptake of GAA in tissues, the 70 KDa band (mature form), visualized by the anti-GAA antibody was quantified and normalized to the levels of expression of GAPDH used as loading control.

GAA [5] = conditions: Pompe cells model expressing mutant forms of GAA, reference [9]; cited from earlier work
human GAA (hGAA) [6] = target: T1, human GAA (hGAA); assay: Circulating hGAA levels by Western blot in GAA KO mice injected with AAV-hGAA plus chaperones; assay type: in vivo; conditions: AAV-hGAA 1×10^11 vg/kg, two months after vector injection (FIG. 5)
Procedure: as §1
Circulating hGAA activity and levels were monitored over a period of two months. […]

recombinant hGAA (ERT): recombinant GAA polypeptide alglucosidase alfa, marketed by Genzyme as Lumizyme or Myozyme
half-life [1]: relatively short

CC(=O)N[C@@H](CS)C(=O)O [NAC, N-acetylcysteine]
GAA activity (uptake) in tissues (GAA [2]): No significant differences | GAA uptake in tissues (human GAA (hGAA) [3]): increase | levels of circulating hGAA (human GAA (hGAA) [4]): significant increase

Nc1c(Br)cc(Br)cc1CN[C@H]1CC[C@H](O)CC1 [ABX, ambroxol]
GAA activity (uptake) in tissues (GAA [2]): No significant differences | GAA uptake in tissues (human GAA (hGAA) [3]): increase | tissue uptake of GAA, especially in a tissue of the nervous system (GAA [5]): did not increase

OC[C@H]1NC[C@H](O)[C@@H](O)[C@@H]1O [DNJ, 1-deoxynojirimycin]
GAA activity in heart (GAA [2]; two months (FIG. 7A), significance only with both DNJ and ABX): increased enzyme activity | GAA activity in diaphragm (GAA [2]; two months (FIG. 7B), significance only with both DNJ and ABX): increased enzyme activity | GAA activity in triceps (GAA [2]; two months (FIG. 7C), significance only with both DNJ and ABX): increased enzyme activity | GAA activity in quadriceps (GAA [2]; two months (FIG. 7D), significance only with both DNJ and ABX): increased enzyme activity | levels of circulating hGAA (human GAA (hGAA) [6]): significant increase | mature lysosomal form of hGAA in triceps (human GAA (hGAA) [3]; Western blot (FIG. 3B), significance reached in triceps only for DNJ group): increased levels | mature lysosomal form of hGAA in spinal cord (human GAA (hGAA) [3]; Western blot (FIG. 3F)): increased levels | mature lysosomal form of hGAA in diaphragm (human GAA (hGAA) [3]; Western blot band density normalized to GAPDH (FIG. 3C)): increased levels | GAA uptake in tissues (human GAA (hGAA) [3]): increase | levels of circulating hGAA (human GAA (hGAA) [4]): significant increase
